According to ChEMBL document CHEMBL4196205, “Dihydrochalcone Glucosides from the Subaerial Parts of Thonningia sanguinea and Their in Vitro PTP1B Inhibitory Activities” (J Nat Prod, 2018):

Columns and labels:
[1] = target: T1, Tyrosine-protein phosphatase non-receptor type 1 (Homo sapiens) (UniProt P18031); assay: Inhibition of recombinant human PTP1B using pNPP as substrate assessed as residual activity at 30 uM after 30 mins by spectrometric method relative to control
T1 sequence (whole entry): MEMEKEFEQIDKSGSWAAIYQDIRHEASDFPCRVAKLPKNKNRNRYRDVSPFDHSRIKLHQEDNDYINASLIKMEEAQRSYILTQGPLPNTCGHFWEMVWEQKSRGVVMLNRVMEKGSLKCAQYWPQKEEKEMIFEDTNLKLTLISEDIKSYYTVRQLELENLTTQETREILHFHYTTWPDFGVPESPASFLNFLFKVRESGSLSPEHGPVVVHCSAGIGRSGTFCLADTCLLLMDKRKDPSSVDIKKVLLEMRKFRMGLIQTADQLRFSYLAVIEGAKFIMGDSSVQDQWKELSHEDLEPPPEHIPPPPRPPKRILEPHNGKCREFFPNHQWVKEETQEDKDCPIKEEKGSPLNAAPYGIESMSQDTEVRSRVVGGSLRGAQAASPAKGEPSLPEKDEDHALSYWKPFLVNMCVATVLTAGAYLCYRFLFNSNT

[2] = target: T2, Tyrosine-protein phosphatase non-receptor type 1 (Homo sapiens, UniProt P18031); assay: Inhibition of recombinant human PTP1B using pNPP as substrate assessed as residual activity after 30 mins by spectrometric method
T2 sequence (P18031 whole entry): T1 sequence (whole entry)

[3] = tested on: HepG2; assay: Cytotoxicity against human HepG2 cells assessed as decrease in cell viability at > 30 uM after 24 hrs by crystal violet staining based assay; conditions: hepg2, 24 h
[4] = target: T1, Tyrosine-protein phosphatase non-receptor type 1 (Homo sapiens); assay: Inhibition of PTP1B in human HepG2 cells assessed as increase in insulin-stimulated IR tyrosine phosphorylation at Y1150/1151 residues preincubated for 30 mins followed by insulin addition measured after 5 mins by immuno blot method; type: cell-based
[5] = tested on: HepG2; assay: Cytotoxicity against human HepG2 cells assessed as decrease in cell viability at > 30 uM after 24 hrs by resazurin dye based assay; conditions: hepg2, 24 h

Row | Activity [1] [%] | IC50 [2] [µM] | SMILES | further results
1 | 99.4 |  | O=C(OC[C@H]1O[C@@H](Oc2cc(O)c(C(=O)CCc3ccccc3)c(O)c2)[C@H](O)[C@@H](O)[C@@H]1O)c1cc(O)c(O)c(O)c1 | 
2 | 98.6 |  | COc1cc([C@H]2OC[C@H]3[C@@H]2CO[C@@H]3c2ccc(O)c(OC)c2)ccc1O | 
3 | 20.8 | 19.3 | O=C(O[C@@H]1[C@@H](O)[C@H](Oc2cc(O)cc(O)c2C(=O)CCc2ccc(O)cc2)O[C@@H]2COC(=O)c3cc(O)c(O)c(O)c3-c3c(cc(O)c(O)c3O)C(=O)O[C@@H]12)c1cc(O)c(O)c(O)c1 | 
4 | 30.9 | 23.8 | O=C1OC[C@H]2O[C@@H](Oc3cc(O)c(C(=O)CCc4ccc(O)cc4)c(O)c3)[C@H](O)[C@@H](O)[C@@H]2OC(=O)c2cc(O)c(O)c(O)c2-c2c1cc(O)c(O)c2O | 
5 | 84.4 |  | O=C1OC[C@H]2O[C@@H](Oc3cc(O)cc(O)c3C(=O)CCc3ccc(O)c(O)c3)[C@H](O)[C@@H](O)[C@@H]2OC(=O)c2cc(O)c(O)c(O)c2-c2c1cc(O)c(O)c2O | 
6 | 97.7 |  | O=C(CCc1ccccc1)c1c(O)cc(O[C@@H]2O[C@H](CO)[C@@H](O)[C@H](O)[C@H]2O)cc1O | 
7 | 29.2 | 24.7 | O=C(O[C@@H]1[C@@H](O)[C@H](Oc2cc(O)cc(O)c2C(=O)CCc2ccc(O)c(O)c2)O[C@@H]2COC(=O)c3cc(O)c(O)c(O)c3-c3c(cc(O)c(O)c3O)C(=O)O[C@@H]12)c1cc(O)c(O)c(O)c1 | 
8 | 28.5 | 21.7 | O=C1OC[C@H]2O[C@@H](Oc3cc(O)c(C(=O)CCc4ccccc4)c(O)c3)[C@H](O)[C@@H](O)[C@@H]2OC(=O)c2cc(O)c(O)c(O)c2-c2c1cc(O)c(O)c2O [THONNINGIANIN B] | 
9 | 86.1 |  | COc1cc(C[C@H]2CO[C@H](c3ccc(O)c(OC)c3)[C@H]2CO)ccc1O | 
10 | 102 |  | O=C(CCc1ccc(O)c(O)c1)c1c(O)cc(O)cc1O[C@@H]1O[C@H](CO)[C@@H](O)[C@H](O)[C@H]1O | 
11 | 91.7 |  | O=C(OC[C@H]1O[C@@H](Oc2cc(O)cc(O)c2C(=O)CCc2ccc(O)c(O)c2)[C@H](O)[C@@H](O)[C@@H]1O)c1cc(O)c(O)c(O)c1 | 
12 | 99.2 |  | COc1cc(/C=C/CO)ccc1O[C@@H]1O[C@H](CO)[C@@H](O)[C@H](O)[C@H]1O | 
13 | 1.9 | 4.4 | O=C(O[C@@H]1[C@@H](O)[C@H](Oc2cc(O)c(C(=O)CCc3ccccc3)c(O)c2)O[C@@H]2COC(=O)c3cc(O)c(O)c(O)c3-c3c(cc(O)c(O)c3O)C(=O)O[C@@H]12)c1cc(O)c(O)c(O)c1 [THONNINGIANIN A] | Activity [3]: Toxic; inhibition [4]: Dose-dependent effect; Activity [5]: Toxic
